Experimental data taken from paper PMC10419174, “WR1065 conjugated to thiol-PEG polymers as novel anticancer prodrugs: broad spectrum efficacy, synergism, and drug resistance reversal” (Frontiers in Oncology, 2023).
“And” between values parts separate entries of the source, which are not always exact repeats. Equal entries are not always repeated.

How the values were obtained:
[1] = test system: Mammary gland MDA-MB-231 cells; test: CyQUANT-NF proliferation assay, 48-h drug treatment; format: cell-based
Procedure: Since the BRG prodrugs are composed of WR1065 as one of the major constituents, assays were conducted to determine if factors reported to modulate the activity of amino acid and polyamine plasma membrane transport systems impacted the efficacy of 4SP65 or 1LP65 in selected cancer cell lines. HL60 cells were exposed to 4SP65 with up to 0.5 mM NaCl, MBA-MD-231 cells were tested in the presence and absence of medium supplemented with estradiol plus insulin (in the BulletKit™ for growth supplements for NHMECs), HCC38 cells were exposed to 4SP65 with and without 10 µM insulin added to the growth medium, and multiple cells lines were pretreated for 24 h with 1 mM DFMO prior to starting exposures to 4SP65.
(§1) The percentage of growth inhibition was calculated as follows: […]

NCI-H1437 NSCLC cells = settings: 48-h treatment, amifostine ND = not definable up to 500 µM
Procedure: as §1

[2] = test system: Mammary gland HCC38 cells; test: CyQUANT-NF proliferation assay, 48-h drug treatment; format: cell-based
Prostate PC3 cells = test: cells
Procedure: as §1

NCI-H460 NSCLC cells = settings: 48-h treatment, amifostine ND = not definable up to 500 µM
Text: To test anticancer effectiveness of individual drugs or drug combinations, the CyQUANT®-NF proliferation assay was used with a plate reader (i) to generate standard curves for cell numbers for each cell line, (ii) to measure the starting cell numbers at initiation of drug treatment, and (iii) to obtain fluorescence readings from cells in 96-well plates for comparisons to a standard curve for the relevant cancer cell line and quantifying cell viability after drug treatments. […] Trypan blue exclusion was used to estimate cell numbers in a few pilot experiments and thereafter was applied to confirm very low viable cell numbers and cell death.
A series of experiments was conducted to determine the relative efficacy of 4SP65, 1LP65, and amifostine as single agents in the same human cancer cell lines.
Five metrics were calculated and used to characterize the shape of the dose-response curve following exposure to a single test agent. Using cell numbers based on fluorescence measurements and standard curves, the percentage growth was calculated at each drug concentration level. The percentage of growth inhibition was calculated as follows:
where Tz = cell numbers or fluorescence counts at time xero, C = vehicle-exposed control cell numbers at the end of the assessment time period, and Ti = test agent-exposed cell numbers or fluorescence counts at each drug concentration. […] The LC50/99 was calculated using Equation 2 = -50 and Eq. 2 = -99, respectively. […] For NHMECs, the relationships between drug exposure levels and fluorescence units were used to define dose-response metrics. The selectivity index values for individual drugs were calculated using IC50 levels in NHMECs divided by the IC50 value for each cancer cell line. Statistical comparisons of differences in individual dose-response metrics between drug treatments and cell lines were conducted using Student’s t-test, with P-values <0.05 considered significant.
Relative cell growth inhibition values for differing levels of each drug alone and in combination were input into SynergyFinder to generate dose-response curves for each drug alone and to produce a dose-response matrix. The dose-response matrix data then were used in generating a two-dimension heatmap and three-dimension volcano plot to visualize the distribution of areas of differing degrees of synergism and to calculate average and maximum synergy scores in selected human cancer cell lines. The expected drug combination responses were calculated using both the Highest Single Agent (HSA) model and the Zero interaction potency (ZIP) model.

[3] = Solubility, storage and stability of 4SP65 and 1LP65; format: physicochemical
Procedure: prepared for use and that was not altered by the solvent used, heating up to 37 °C for up to 3 days, and shaking or rocking for up to 3 days at RT or 4°C. For experiment, an aliquot of drug was first mixed in medium, the solvent was removed and saved, and gel pieces were recovered, dried on a vacuum pump, […]
The difference in the starting weight of drug placed into solvent minus the weight of the residue after drying on a vacuum pump was considered to represent the amount of drug that went into solution. The amount of drug that was dissolved at a given time ranged from 40 to 61%, averaging 50.7 ± 8.1% (SD). The weight of the 4SP65 in solution was then used for diluting the drug to concentrations of 200 or 400 µM in supplemented RPMI or DMEM/F12 medium for routine treatment of cells. The dried residue was not used in the in vitro drug efficacy studies. The formation of a gel in the aqueous solvents tested was unexpected since […]
few free thiols in polymer arms of the PEG scaffold for cross-linking reactions to occur. However, unintended topical entanglements between polymer chains of multi-arm PEG-thiol molecules without disulfide formation have been reported (Tang and Bradley 2014 24860800). Aliquots of 4SP65 dissolved in FBS enriched medium has remained stable for >6 months while remnants of the original viscous polymer have maintained stability without any apparent loss of activity when stored for 60 […]
However, the bulk of the product was dissolved at 40 mM in DMSO and stored in aliquots at −80°C for future use once by further dilution in DMSO and then final dilution in medium for treatment of normal human epithelium and human cancer cell lines at working solutions of 4 mM or 400 µM drug. 1LP65 has maintained stability for six months in frozen aliquots but should be stable in DMSO at −80°C for two to three years based upon recommended storage conditions for cystamine dihydrochloride (Selleck Chemical product information), an analogous 225 Da compound with a disulfide bond and amine groups like 1LP65. […]

[4] = 48-h treatment, amifostine ND = not definable up to 500 µM
[5] = 48-h treatment, amifostine ND = not definable up to 500 µM, read-out: LC50 (the source's name)

With `COCCOCCOCCOCCOCCOCCSSCCNCCCN.O=C(O)C(F)(F)F.O=C(O)C(F)(F)F` [1LP65, m-PEG6-S-S-WR1065] as the molecule, how does the GI50 [1, 4] read?
The GI50 was 41.8 ± 5.9 µM.

What about the IC50 [1, 4] of the same molecule?
The IC50 was 52.4 ± 4.8 µM.

And the LC99 [1, 4]?
The LC99 was 135 ± 6.6 µM.

And the TGI [1, 4]?
The TGI was 76.4 ± 9.2 µM and 76.4 µM.

What about the CC50 [1, 5] of the same molecule?
Its CC50 is 110 ± 4.7 µM.

And the “Dose reduction value AMF ÷ 1LP65” value ([1]; at GI50)?
The value was 5.8 fold.

What about the GI50 (NCI-H1437 NSCLC cells) of the same molecule?
Its GI50 is 66.2 ± 4.2 µM.

And the IC50 (NCI-H1437 NSCLC cells)?
The IC50 was 74.8 ± 2.1 µM.

And the LC99 (NCI-H1437 NSCLC cells)?
Its LC99 is 234 ± 16 µM.

What about the TGI (NCI-H1437 NSCLC cells) of the same molecule?
The TGI was 109 ± 17 µM.

What about the CC50 (NCI-H1437 NSCLC cells; read-out: LC50) of the same molecule?
Its CC50 is 157 ± 14 µM.

What about the GI50 [2, 4] of the same molecule?
Its GI50 is 36.5 ± 2.3 µM.

And the IC50 [2, 4]?
Its IC50 is 47.3 ± 2.2 µM.

And the LC99 [2, 4]?
Its LC99 is 83.9 ± 2.9 µM.

What about the TGI [2, 4] of the same molecule?
Its TGI is 46.9 ± 2.5 µM.

And the CC50 [2, 5]?
The CC50 was 59.9 ± 2.9 µM.

What about the “Dose reduction value AMF ÷ 1LP65” value ([2]; at GI50) of the same molecule?
Its value is 2.1 fold.

And the “Dose reduction value AMF ÷ 1LP65” value ([2]; at IC50)?
Its value is 5.8 fold.

What about the “Dose reduction value AMF ÷ 1LP65” value ([2]; at TGI) of the same molecule?
The value was 5.4 fold.

What about the GI50 (Prostate PC3 cells; [4]) of the same molecule?
The GI50 was 22.9 ± 1.8 µM.

What about the IC50 (Prostate PC3 cells; [4]) of the same molecule?
Its IC50 is 37.5 ± 4.6 µM.

What about the LC99 (Prostate PC3 cells; [4]) of the same molecule?
The LC99 was 86.3 ± 8.9 µM.

And the TGI (Prostate PC3 cells; [4])?
Its TGI is 40.5 ± 2.8 µM and 40.5 µM.

What about the “Dose reduction value AMF ÷ 1LP65” value (Prostate PC3 cells; at GI50) of the same molecule?
The value was 2.3 fold.

And the “Dose reduction value AMF ÷ 1LP65” value (Prostate PC3 cells; at IC50)?
Its value is 2.8 fold.

And the “Dose reduction value AMF ÷ 1LP65” value (Prostate PC3 cells; at TGI)?
Its value is 7.4 fold.

What about the CC50 (Prostate PC3 cells; read-out: LC50, 48-h treatment, amifostine ND = not definable up to 500 µM) of the same molecule?
Its CC50 is 60 ± 1.1 µM.

And the GI50 (NCI-H460 NSCLC cells)?
The GI50 was 77.7 ± 15 µM.

And the IC50 (NCI-H460 NSCLC cells)?
The IC50 was 90.1 ± 16.6 µM.

What about the LC99 (NCI-H460 NSCLC cells) of the same molecule?
Its LC99 is 182 ± 6.7 µM.

What about the TGI (NCI-H460 NSCLC cells) of the same molecule?
The TGI was 124 ± 13.3 µM and 124 µM.

What about the CC50 (NCI-H460 NSCLC cells; read-out: LC50) of the same molecule?
The CC50 was 155 ± 5.1 µM.

What about the solubility [3] of the same molecule?
The solubility was “soluble 100% DMSO or aqueous solution”.

What about the “time of maintained stability” value ([3]; frozen aliquots in DMSO at −80°C) of the same molecule?
The value was “six”.
